Test results taken from ChEMBL document CHEMBL5107999, “Synthesis and biological evaluation of 4-hydroxy-methylpiperidinyl-N-benzyl-acylarylhydrazone hybrids designed as novel multifunctional drug candidates for Alzheimer's disease” (Bioorg Med Chem, 2022).
The source made the active and inactive calls. No cut-off for these calls is given here.

Tests used:
Acetylcholinesterase [1] = target: T1, Acetylcholinesterase (Electrophorus electricus, UniProt O42275); test: Inhibition of Electrophorus electricus AchE assessed as inhibition constant
[2] = Selectivity ratio, ratio of IC50 for equine serum BuChE to IC50 for Electrophorus electricus AchE
SH-SY5Y [3] = test: Neuroprotective activity against t-BOOH induced neurotoxicity in human SH-SY5Y cells assessed as inhibition of ROS formation at 2.5 to 10 uM incubated for 30 mins by H2DCF-DA fluorescence assay; type: functional, cell-based; conditions: dose 2.5-10 µM
Acetylcholinesterase [4] = target: T1, Acetylcholinesterase; test: Inhibition of Electrophorus electricus AchE using acetylthiocholine iodide as substrate preincubated for 10 mins followed by substrate addition by spectrophotometric based Ellman's method
Cholinesterase = Cholinesterase (Equus caballus, UniProt P81908); test: Inhibition of equine serum BuChE using butyrylthiocholine as substrate preincubated for 10 mins followed by substrate addition by spectrophotometric based Ellman's method
[5] = target: Amyloid-beta precursor protein (Homo sapiens) (UniProt P05067); test: Inhibition of amyloid beta (1 to 42) (unknown origin) self aggregation at 75 uM by Thioflavin T based fluorescence assay
SH-SY5Y [6] = test: Antioxidant activity against t-BOOH induced neurotoxicity in human SH-SY5Y cells at 10 uM; type: functional
SH-SY5Y [7] = test: Neuroprotective activity against t-BOOH induced neurotoxicity in human SH-SY5Y cells assessed as increase in cell viability at 2.5 to 10 uM incubated for 4 hrs by MTT assay; type: functional, cell-based; conditions: dose 2.5-10 µM
HT-29 = test: Cytotoxicity against human HT-29 cells assessed as reduction in cell viability upto 30 uM incubated for 24 hrs by calcein/propidium iodide assay; type: toxicity, cell-based; conditions: ht-29, 24 h
SH-SY5Y [8] = test: Neuroprotective activity against amyloid beta (1 to 42) induced neurotoxicity in human SH-SY5Y cells assessed as increase in cell viability at 5 to 10 uM incubated for 4 hrs by MTT assay; type: functional, cell-based; conditions: dose 5-10 µM
SH-SY5Y [9] = test: Cytotoxicity against human SH-SY5Y cells assessed as reduction in cell viability at 20 to 80 uM incubated for 24 hrs by MTT assay; type: toxicity, cell-based; conditions: dose 20-80 µM
SH-SY5Y [10] = test: Antioxidant activity against t-BOOH induced neurotoxicity in human SH-SY5Y cells; type: functional, cell-based
[11] = target: Acetylcholinesterase (Electrophorus electricus) (UniProt O42275); test: Inhibition of Electrophorus electricus AchE using acetylthiocholine iodide as substrate at 30 uM preincubated for 10 mins followed by substrate addition by spectrophotometric based Ellman's method
SH-SY5Y [12] = test: Cytotoxicity against human SH-SY5Y cells assessed as reduction in cell viability upto 40 uM incubated for 24 hrs by MTT assay; type: toxicity, cell-based
SH-SY5Y [13] = test: Neuroprotective activity against t-BOOH induced neurotoxicity in human SH-SY5Y cells assessed as inhibition of ROS formation at 10 uM incubated for 30 mins by H2DCF-DA fluorescence assay; type: functional, cell-based

Sequence of Cholinesterase (P81908 whole entry): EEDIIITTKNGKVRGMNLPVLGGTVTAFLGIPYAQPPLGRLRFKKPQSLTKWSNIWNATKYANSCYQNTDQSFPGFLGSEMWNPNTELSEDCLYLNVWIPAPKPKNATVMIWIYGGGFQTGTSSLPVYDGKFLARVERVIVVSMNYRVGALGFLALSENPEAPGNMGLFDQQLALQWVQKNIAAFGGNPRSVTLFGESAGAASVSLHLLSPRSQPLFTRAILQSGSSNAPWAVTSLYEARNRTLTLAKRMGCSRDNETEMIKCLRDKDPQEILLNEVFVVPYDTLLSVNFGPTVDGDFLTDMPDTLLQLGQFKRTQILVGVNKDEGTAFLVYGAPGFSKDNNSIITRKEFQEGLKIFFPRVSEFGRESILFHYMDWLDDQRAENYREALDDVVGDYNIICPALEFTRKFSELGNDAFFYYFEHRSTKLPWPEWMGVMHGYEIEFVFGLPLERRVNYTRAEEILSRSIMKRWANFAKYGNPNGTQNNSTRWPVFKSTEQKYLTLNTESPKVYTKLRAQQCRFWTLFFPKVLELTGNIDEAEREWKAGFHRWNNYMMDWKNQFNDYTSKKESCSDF
T1 sequence (O42275 whole entry): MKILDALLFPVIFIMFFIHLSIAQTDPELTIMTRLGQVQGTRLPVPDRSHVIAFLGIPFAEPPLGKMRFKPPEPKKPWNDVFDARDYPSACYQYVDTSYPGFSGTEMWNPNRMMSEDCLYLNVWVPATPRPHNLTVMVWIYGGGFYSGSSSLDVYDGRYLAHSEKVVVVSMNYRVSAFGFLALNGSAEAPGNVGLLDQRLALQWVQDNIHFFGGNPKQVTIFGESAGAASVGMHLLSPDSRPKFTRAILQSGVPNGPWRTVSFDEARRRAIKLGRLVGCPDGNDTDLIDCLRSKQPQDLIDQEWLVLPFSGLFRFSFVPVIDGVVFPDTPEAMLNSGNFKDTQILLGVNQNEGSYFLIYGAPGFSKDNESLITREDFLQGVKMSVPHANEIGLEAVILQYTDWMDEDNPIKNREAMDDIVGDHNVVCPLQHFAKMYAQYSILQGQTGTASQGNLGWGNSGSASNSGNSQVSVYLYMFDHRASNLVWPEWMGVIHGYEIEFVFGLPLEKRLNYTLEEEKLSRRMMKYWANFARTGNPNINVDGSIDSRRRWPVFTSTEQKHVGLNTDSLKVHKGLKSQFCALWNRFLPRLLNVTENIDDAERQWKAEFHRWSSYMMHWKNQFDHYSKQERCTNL
Sequence of Amyloid-beta precursor protein (Homo sapiens) (P05067 whole entry): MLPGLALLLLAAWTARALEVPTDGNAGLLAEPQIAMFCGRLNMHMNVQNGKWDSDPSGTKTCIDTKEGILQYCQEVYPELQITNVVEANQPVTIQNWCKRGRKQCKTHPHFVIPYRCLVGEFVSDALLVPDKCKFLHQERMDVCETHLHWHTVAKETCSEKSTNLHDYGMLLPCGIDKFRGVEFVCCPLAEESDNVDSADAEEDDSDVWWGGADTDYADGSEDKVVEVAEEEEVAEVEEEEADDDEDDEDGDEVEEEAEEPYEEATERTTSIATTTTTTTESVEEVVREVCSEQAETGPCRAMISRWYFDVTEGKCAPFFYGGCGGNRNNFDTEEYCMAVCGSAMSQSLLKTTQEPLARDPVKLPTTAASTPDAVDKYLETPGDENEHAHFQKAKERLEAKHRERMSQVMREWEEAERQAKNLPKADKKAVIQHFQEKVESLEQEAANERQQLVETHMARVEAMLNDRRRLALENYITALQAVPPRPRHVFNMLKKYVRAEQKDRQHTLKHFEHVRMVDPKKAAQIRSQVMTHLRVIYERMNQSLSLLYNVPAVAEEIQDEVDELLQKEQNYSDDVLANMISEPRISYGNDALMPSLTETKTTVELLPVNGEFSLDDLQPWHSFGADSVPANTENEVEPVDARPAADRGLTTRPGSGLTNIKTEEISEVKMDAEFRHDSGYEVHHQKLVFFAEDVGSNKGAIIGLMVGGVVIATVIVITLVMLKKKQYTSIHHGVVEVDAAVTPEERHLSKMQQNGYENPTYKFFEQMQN
Sequence of Acetylcholinesterase (Electrophorus electricus) (O42275 24-633 limits assumed): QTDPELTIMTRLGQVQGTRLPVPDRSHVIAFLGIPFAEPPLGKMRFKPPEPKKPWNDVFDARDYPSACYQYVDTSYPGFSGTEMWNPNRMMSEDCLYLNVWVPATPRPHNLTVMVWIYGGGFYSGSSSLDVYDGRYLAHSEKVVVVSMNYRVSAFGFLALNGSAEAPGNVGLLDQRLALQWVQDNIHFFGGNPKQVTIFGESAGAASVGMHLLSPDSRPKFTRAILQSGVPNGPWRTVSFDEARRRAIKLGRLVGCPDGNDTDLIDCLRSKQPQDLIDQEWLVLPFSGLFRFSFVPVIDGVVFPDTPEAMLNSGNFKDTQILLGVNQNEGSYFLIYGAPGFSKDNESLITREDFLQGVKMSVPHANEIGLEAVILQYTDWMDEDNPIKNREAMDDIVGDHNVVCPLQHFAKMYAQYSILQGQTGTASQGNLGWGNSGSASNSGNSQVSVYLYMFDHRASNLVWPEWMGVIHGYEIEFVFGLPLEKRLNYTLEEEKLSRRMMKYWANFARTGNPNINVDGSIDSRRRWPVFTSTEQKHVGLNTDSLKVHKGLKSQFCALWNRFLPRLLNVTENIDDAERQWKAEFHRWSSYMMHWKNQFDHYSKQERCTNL

## O=C(N/N=C/c1ccccc1O)c1ccc(CN2CCC(CO)CC2)cc1
Acetylcholinesterase [1]
  Ki: 3.81 µM
[2]
  Ratio IC50: > 5.1
SH-SY5Y [3]
  Activity: Active
Acetylcholinesterase [4]
  IC50: 5.9 µM
Cholinesterase
  IC50: > 30 µM
[5]
  inhibition: 30%
SH-SY5Y [6]
  inhibition at 10 µM: 67.1%
SH-SY5Y [7]
  Activity: Active
HT-29
  Activity: Non-Toxic
SH-SY5Y [8]
  Activity: Active
SH-SY5Y [9]
  Activity: Toxic
SH-SY5Y [10]
  IC50: 7.45 µM

## O=C(N/N=C/c1ccc(N2CCCCC2)cc1)c1ccc(CN2CCC(CO)CC2)cc1
Acetylcholinesterase [1]
  Ki: 6.24 µM
[2]
  Ratio IC50: > 2.5
Acetylcholinesterase [4]
  IC50: 12 µM
Cholinesterase
  IC50: > 30 µM
HT-29
  Activity: Non-Toxic
SH-SY5Y [9]
  Activity: Toxic

## O=C(N/N=C/c1ccc(O)cc1)c1ccc(CN2CCC(CO)CC2)cc1
[2]
  Ratio IC50: > 1.2
Acetylcholinesterase [4]
  IC50: 25.1 µM
Cholinesterase
  IC50: > 30 µM
[11]
  inhibition: 45%
HT-29
  Activity: Non-Toxic

## COc1ccc(/C=N/NC(=O)c2ccc(CN3CCC(CO)CC3)cc2)cc1
[2]
  Ratio IC50: > 2
Acetylcholinesterase [4]
  IC50: 15.3 µM
Cholinesterase
  IC50: > 30 µM
HT-29
  Activity: Non-Toxic

## COc1ccccc1/C=N/NC(=O)c1ccc(CN2CCC(CO)CC2)cc1
[2]
  Ratio IC50: 1
Acetylcholinesterase [4]
  IC50: 13.5 µM
Cholinesterase
  IC50: 12.9 µM
HT-29
  Activity: Non-Toxic

## O=C(N/N=C/c1ccc(Cl)cc1)c1ccc(CN2CCC(CO)CC2)cc1
Acetylcholinesterase [1]
  Ki: 3.55 µM
[2]
  Ratio IC50: > 5.4
SH-SY5Y [12]
  Activity: Non-Toxic
Acetylcholinesterase [4]
  IC50: 5.6 µM
Cholinesterase
  IC50: > 30 µM
SH-SY5Y [6]
  inhibition at 10 µM: 24.5%
HT-29
  Activity: Non-Toxic
SH-SY5Y [13]
  Activity: Active

## O=C(N/N=C/c1ccc(F)cc1)c1ccc(CN2CCC(CO)CC2)cc1
[2]
  Ratio IC50: > 1.1
Acetylcholinesterase [4]
  IC50: 26.4 µM
Cholinesterase
  IC50: > 30 µM
HT-29
  Activity: Non-Toxic

## O=C(N/N=C/c1cccc(F)c1)c1ccc(CN2CCC(CO)CC2)cc1
[2]
  Ratio IC50: > 3.6
Acetylcholinesterase [4]
  IC50: 8.2 µM
Cholinesterase
  IC50: > 30 µM
HT-29
  Activity: Non-Toxic

## O=C(N/N=C/c1cccc(Cl)c1)c1ccc(CN2CCC(CO)CC2)cc1
Acetylcholinesterase [1]
  Ki: 1.95 µM
[2]
  Ratio IC50: 15
SH-SY5Y [12]
  Activity: Non-Toxic
Acetylcholinesterase [4]
  IC50: 3.3 µM
Cholinesterase
  IC50: 49.8 µM
SH-SY5Y [6]
  inhibition at 10 µM: 46%
HT-29
  Activity: Non-Toxic
SH-SY5Y [13]
  Activity: Active

## O=C(N/N=C/c1cccc(O)c1)c1ccc(CN2CCC(CO)CC2)cc1
[2]
  Ratio IC50: > 2.2
Acetylcholinesterase [4]
  IC50: 13.9 µM
Cholinesterase
  IC50: > 30 µM
HT-29
  Activity: Non-Toxic

## O=C(N/N=C/c1ccccc1F)c1ccc(CN2CCC(CO)CC2)cc1
[2]
  Ratio IC50: > 2.5
Acetylcholinesterase [4]
  IC50: 12 µM
Cholinesterase
  IC50: > 30 µM
HT-29
  Activity: Non-Toxic

## O=C(N/N=C/c1ccccc1Cl)c1ccc(CN2CCC(CO)CC2)cc1
[2]
  Ratio IC50: 1.4
Acetylcholinesterase [4]
  IC50: 9 µM
Cholinesterase
  IC50: 12.9 µM
HT-29
  Activity: Non-Toxic
